For 25 compounds, IC50 results are on record in patent US20150004134A1, “TREATMENT OF CANCER WITH HETEROCYCLIC INHIBITORS OF GLUTAMINASE” (Calithera Biosciences, Inc., priority 2012, published 2015).

Each structure is given as a SMILES string. Like-named read-outs stand apart in the source and are kept apart here.

For this assay, the system named is P493-6 (myc "on") cells. Nature of the assay: Cell Proliferation Assay. It is filed as cell-based. As to conditions: P493-6, 72 h. An outline of the steps: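 P493-6 cells with myc on, 10,000 per well in RPMI/10% FBS, exposed to serially diluted compound (0.5% DMSO final) for 72 h at 37 °C, 5% CO2. Antiproliferative effect read by Cell Titer Glo luminescence or Viacount FACS viability count.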

Where [1] appears, read: read-out: Cell prolif P493 72 h IC50, P493 cells, 72 h.
Setting [2] is: read-out: Cell prolif P493 72 h IC50, P493-6 cells, 72 h.

A word on the IC50: it is the concentration at which inhibition is half-maximal. Take `O=C(Cc1ccccc1)Nc1nnc(CCSCc2nnc(NC(=O)Cc3ccccc3)s2)s1` [Compound 199]: under setting [1], the IC50 amounted to 170 nM.

In the case of `O=C(Nc1nnc(CCCCc2nnc(NC(=O)C(O)c3ccccc3)s2)s1)C(O)c1ccccc1` (stereo not shown) [Compound 174], the IC50 under setting [1] worked out at 440 nM.

In the case of `CS(=O)(=O)c1ccc(CC(=O)Nc2nnc(CCSCCc3nnc(NC(=O)Cc4ccc(S(C)(=O)=O)cc4)s3)s2)cc1` [Compound 182], under setting [1], the IC50 is above 50000 nM.

In the case of `O=C(Cc1ccccc1)Nc1ccc(CCCCc2nnc(NC(=O)NC3CCCC3)s2)nn1` [Compound 403], under setting [2], the IC50 was 120 nM.

As for `O=C(Cc1ccc2ncccc2c1)Nc1nnc(CCCCc2nnc(NC(=O)Cc3ccc4ncccc4c3)s2)s1` [Compound 269], under setting [1], the IC50 came to 520 nM.

Turning to `O=C(Cc1ccccc1)Nc1ccc(CCCCc2nnc(NC(=O)Cc3cccc(Cl)c3F)s2)nn1` [Compound 545], under setting [2], the IC50 was 46 nM.

For the compound `CCNC(=O)OC(C)c1cccc(CC(=O)Nc2ccc(CCCCc3nnc(NC(=O)Cc4ccccc4)s3)nn2)c1` (stereo not shown) [Compound 610], under setting [2], the IC50 is 11 nM.

With `O=C(Cc1ccccc1)Nc1nnc(CCSCCc2nnc(NC(=O)C(c3ccccc3)N3CCNCC3)s2)s1` (stereo not shown) [Compound 78], the IC50 under setting [1] turned out to be 10000 nM.

For the compound `O=C(Cc1ccncc1)Nc1nnc(CCSCCc2nnc(NC(=O)Cc3ccncc3)s2)s1` [Compound 361], under setting [1], the IC50 is above 20000 nM.

For `O=C(Cc1ccccc1)Nc1nnc(CCCCc2nnc(NC(=O)Cc3ccccc3)o2)o1` [Compound 637], the IC50 under setting [2] was above 50000 nM.

Turning to `O=C(Nc1nnc(CCCCc2nnc(NC(=O)[C@@H](O)c3ccccc3)s2)s1)[C@@H](O)c1ccccc1` [Compound 92], the IC50 under setting [1] was determined as 470 nM.

With `CS(=O)(=O)Cc1cccc(CC(=O)Nc2nnc(CCCCc3ccc(NC(=O)Cc4ccccc4)nn3)s2)c1` [Compound 634], the half-maximal inhibitory concentration (IC50) under setting [2] was 48 nM.

Take `Cc1nccn1Cc1cccc(CC(=O)Nc2nnc(CCCCc3nnc(NC(=O)Cc4cccc(Cn5ccnc5C)c4)s3)s2)c1` [Compound 296]: the half-inhibitory concentration (IC50) under setting [1] turned out to be 170 nM.

`CCCC(=O)OCN(C(=O)Cc1ccccc1)c1nnc(CCSCCc2nnc(N(COC(=O)CCC)C(=O)Cc3ccccc3)s2)s1` [Compound 8]: the IC50 under setting [1] came out at 1600 nM.

As for `O=C(Cc1ccccc1Br)Nc1nnc(CCSCCc2nnc(NC(=O)Cc3ccccc3Br)s2)s1` [Compound 283], the IC50 under setting [1] is 740 nM.

For the compound `O=C(Cc1ccccc1)Nc1nnc(CCSCCc2nnc(NC(=O)Cc3ccccn3)s2)s1` [Compound 359], the IC50 under setting [1] was 910 nM.

On to `O=C(Cc1ccccc1)Nc1ccc(CCCCc2nnc(NC(=O)Cc3cccc(CN4CCCC4=O)c3)s2)nn1` [Compound 479], for which the IC50 under setting [2] was found to be 30 nM.

For the compound `O=C(Nc1nnc(CCCCc2nnc(NC(=O)C3Cc4cc(Cl)ccc4O3)s2)s1)C1Cc2cc(Cl)ccc2O1` (stereo not shown) [Compound 120], under setting [1], the IC50 was determined as 38000 nM.

For `CC(CO)(CO)C(=O)Nc1nnc(CCCCc2nnc(NC(=O)C(C)(CO)CO)s2)s1` [Compound 151], the IC50 under setting [1] was above 50000 nM.

`O=C(Nc1nnc(CCCCCc2nnc(NC(=O)C(CO)c3ccccc3)s2)s1)C(CO)c1ccccc1` (stereo not shown) [Compound 30]: under setting [1], the 50% inhibitory concentration (IC50) was 2500 nM.

On to `CC(C)(C)C(=O)OCN(C(=O)Cc1ccccc1)c1nnc(CCSCCc2nnc(N(COC(=O)C(C)(C)C)C(=O)Cc3ccccc3)s2)s1` [Compound 16], for which, under setting [1], the IC50 turned out to be 800 nM.

In the case of `O=C(CC1CC1)Nc1nnc(CCCCc2nnc(NC(=O)CC3CC3)s2)s1` [Compound 85], the IC50 under setting [1] was determined as 1800 nM.

As to `O=C(CCN1CCOCC1)OCC(C(=O)Nc1nnc(CCCCc2nnc(NC(=O)C(CO)c3ccccc3)s2)s1)c1ccccc1` (stereo not shown) [Compound 228, 3-((5-{4-[5-(3-hydroxy-2-phenylpropanamido)-1,3,4-thiadiazol-2-yl]butyl}-1,3,4-thiadiazol-2-yl)amino)-3-oxo-2-phenylpropyl 3-morpholinopropanoate], under setting [1], the IC50 was 130 nM.

For the compound `CN(C)CC(=O)Nc1ccc(CCCCc2nnc(NC(=O)Cc3cccc(CNC(=O)OC(C)(C)C)c3)s2)nn1` [Compound 478], the IC50 under setting [2] amounted to 46 nM.

In the case of `CN(Cc1cccc(CC(=O)Nc2nnc(CCCCc3ccc(NC(=O)Cc4ccccc4)nn3)s2)c1)C(=O)OC(C)(C)C` [Compound 396], the IC50 under setting [2] amounted to 5 nM.
